Results published in US20240368163A1, “COMPOUNDS AND METHODS FOR MODULATING SPLICING” (REMIX THERAPEUTICS INC., priority 2021, published 2024).
Read-outs that look alike come from different tables or passages of the source.

Tests used:
Format in all cases: cell-based, human
HTT [1] = test: Splicing RT-qPCR assay, HTT mRNA canonical junction (CJ) and alternative junction (AJ); conditions: for AC50: increase in AJ mRNA
How it was run: (§1)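 First, A673 cells adhered 24 h, while K562 cells were plated directly. Next, compounds were added as an 11-point 3-fold series from 10 uM for 24 h. Finally, lysates went to RT-qPCR, with 2^(−ΔΔCt) values converted to percentage response.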

MYB [2] = test: Splicing RT-qPCR assay, MYB mRNA canonical junction (CJ) and alternative junction (AJ); conditions: for AC50: increase in AJ mRNA
How it was run: as §1

SMN2 = test: Splicing RT-qPCR panel, SMN2 canonical junction (CJ) mRNA; conditions: RT-qPCR panel, canonical junction mRNA, compound concentration having 50% response in CJ decrease, read-out: SMN2 IC50 (decrease in CJ mRNA levels)
How it was run: as §1

Target C [3] = test: Splicing RT-qPCR panel, Target C canonical junction (CJ) mRNA; conditions: RT-qPCR panel, canonical junction mRNA, compound concentration having 50% response in CJ decrease, read-out: Target C IC50 (decrease in CJ mRNA levels)
How it was run: as §1

MYB [4] = test: HiBiT protein abundance assay, MYB; conditions: Table 13A, modified K562 cells
How it was run: (§2)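 Protein abundance measured by Nano-Glo HiBiT lytic luminescence after 24 h compound exposure of modified K562 lines, 10000 cells/well, top final dose 10 μM in 3-fold steps. Four-parameter fit of control-normalised response gives concentration reducing abundance to 50% of untreated.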

HTT [5] = test: HiBiT protein abundance assay, HTT; conditions: Table 13A, modified K562 cells
How it was run: as §2

Target C [6] = test: HiBiT protein abundance assay, Target C; conditions: Table 13A, modified K562 cells
How it was run: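 Target protein levels in engineered HiBiT-tagged cells were read by lytic luminescence after 24 h compound exposure (10000 cells/well, 10 μM top final, 3-fold steps, ≤0.25% DMSO). Unmodified K562 served as baseline; four-parameter regression gave concentration reducing abundance to 50%.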

[7] = Homo sapiens, 24 h, decrease in CJ mRNA, A673 or K562 cells, 24 hours treatment, RT-qPCR, read-out: HTT CJ IC50
[8] = Homo sapiens, 24 h, A673 or K562 cells, 24 hours treatment, RT-qPCR
[9] = Homo sapiens, RT-qPCR panel, canonical junction mRNA, compound concentration having 50% response in CJ decrease, read-out: HTT IC50 (decrease in CJ mRNA levels)
[10] = Homo sapiens, 24 h, decrease in CJ mRNA, A673 or K562 cells, 24 hours treatment, RT-qPCR, read-out: MYB CJ IC50
[11] = Homo sapiens, RT-qPCR panel, canonical junction mRNA, compound concentration having 50% response in CJ decrease, read-out: MYB IC50 (decrease in CJ mRNA levels)

## CN(c1ccc(-c2ccc(-c3cn[nH]c3)c3ncsc23)nn1)[C@H]1C[C@H]2COC[C@@H](C1)N2 [Compound 355]
HTT [1]; [7]
  IC50: 1 to 10 µM
HTT [1]; [8]
  AC50: 1 to 10 µM
HTT [1]; [9]
  IC50: 1 to 10 µM
MYB [2]; [10]
  IC50: 1 to 10 µM
MYB [2]; [8]
  AC50: 1 to 10 µM
MYB [2]; [11]
  IC50: 1 to 10 µM
SMN2; Homo sapiens
  IC50: 1 to 10 µM
Target C [3]; Homo sapiens
  IC50: 1 to 10 µM
MYB [4]; Homo sapiens, K562, 24 h
  IC50: 1 to 10 µM
HTT [5]; Homo sapiens, K562, 24 h
  IC50: 1 to 10 µM
Target C [6]; Homo sapiens, K562, 24 h
  IC50: 1 to 10 µM

## c1nc2c(-c3cn[nH]c3)ccc(-c3ccc(O[C@@H]4C[C@H]5COC[C@@H](C4)N5)nn3)c2s1 [Compound 357]
HTT [1]; [8]
  AC50: < 0.1 µM
HTT [1]; [9]
  IC50: < 0.1 µM
MYB [2]; [10]
  IC50: 0.1 to 1 µM
MYB [2]; [8]
  AC50: 0.1 to 1 µM
MYB [2]; [11]
  IC50: 0.1 to 1 µM
SMN2; Homo sapiens
  IC50: < 0.1 µM
Target C [3]; Homo sapiens
  IC50: 0.1 to 1 µM
MYB [4]; Homo sapiens, K562, 24 h
  IC50: 0.1 to 1 µM
HTT [5]; Homo sapiens, K562, 24 h
  IC50: < 0.1 µM
Target C [6]; Homo sapiens, K562, 24 h
  IC50: 0.1 to 1 µM

## c1nc2c(-c3cn[nH]c3)ccc(-c3ccc(O[C@H]4C[C@H]5COC[C@@H](C4)N5)nn3)c2s1 [Compound 358]
HTT [1]; [7]
  IC50: > 10 µM
HTT [1]; [8]
  AC50: > 10 µM
HTT [1]; [9]
  IC50: > 10 µM
MYB [2]; [10]
  IC50: 1 to 10 µM
MYB [2]; [8]
  AC50: > 10 µM
MYB [2]; [11]
  IC50: 1 to 10 µM
SMN2; Homo sapiens
  IC50: > 10 µM
Target C [3]; Homo sapiens
  IC50: > 10 µM
MYB [4]; Homo sapiens, K562, 24 h
  IC50: 1 to 10 µM
HTT [5]; Homo sapiens, K562, 24 h
  IC50: > 10 µM
Target C [6]; Homo sapiens, K562, 24 h
  IC50: > 10 µM

## CCc1n[nH]c2c(-c3ccc(N(C)[C@@H]4C[C@H]5CC[C@@H](C4)N5)nn3)ccc(-c3cnn(C)n3)c12 [Compound 359, (1R,3S,5S)-N-{6-[3-ethyl-4-(2-methyl-1,2,3-triazol-4-yl)-1H-indazol-7-yl]pyridazin-3-yl}-N-methyl-8-azabicyclo[3.2.1]octan-3-amine]
HTT [1]; [7]
  IC50: > 10 µM
HTT [1]; [8]
  AC50: > 10 µM
HTT [1]; [9]
  IC50: > 10 µM
MYB [2]; [10]
  IC50: > 10 µM
MYB [2]; [8]
  AC50: > 10 µM
MYB [2]; [11]
  IC50: > 10 µM
SMN2; Homo sapiens
  IC50: > 10 µM
Target C [3]; Homo sapiens
  IC50: > 10 µM
MYB [4]; Homo sapiens, K562, 24 h
  IC50: 1 to 10 µM
HTT [5]; Homo sapiens, K562, 24 h
  IC50: > 10 µM
Target C [6]; Homo sapiens, K562, 24 h
  IC50: > 10 µM

## c1nc2c(-c3cn[nH]c3)ccc(-c3ccc(N(C4CC4)C4C[C@H]5CC[C@@H](C4)N5)nn3)c2s1 (stereo partly drawn) [Compound 360, (exo)-N-cyclopropyl-N-{6-[4-(1H-pyrazol-4-yl)-1,3-benzothiazol-7-yl]pyridazin-3-yl}-8-azabicyclo [3.2.1] octan-3-amine]
HTT [1]; [8]
  AC50: < 0.1 µM
HTT [1]; [9]
  IC50: < 0.1 µM
MYB [2]; [10]
  IC50: 0.1 to 1 µM
MYB [2]; [8]
  AC50: 0.1 to 1 µM
MYB [2]; [11]
  IC50: 0.1 to 1 µM
SMN2; Homo sapiens
  IC50: 0.1 to 1 µM
Target C [3]; Homo sapiens
  IC50: 0.1 to 1 µM
MYB [4]; Homo sapiens, K562, 24 h
  IC50: 0.1 to 1 µM
HTT [5]; Homo sapiens, K562, 24 h
  IC50: 0.1 to 1 µM
Target C [6]; Homo sapiens, K562, 24 h
  IC50: < 0.1 µM

## COc1cc(-c2ccc(-c3ccc(N(C)[C@@H]4C[C@H]5CC[C@@H](C4)N5)nn3)c3[nH]ncc23)ccn1 [Compound 364, (exo)-N-{6-[4-(2-methoxypyridin-4-yl)-1H-indazol-7-yl]pyridazin-3-yl}-N-methyl-8-azabicyclo[3.2.1]octan-3-amine]
HTT [1]; [8]
  AC50: < 0.1 µM
HTT [1]; [9]
  IC50: < 0.1 µM
MYB [2]; [10]
  IC50: 0.1 to 1 µM
MYB [2]; [8]
  AC50: < 0.1 µM
MYB [2]; [11]
  IC50: 0.1 to 1 µM
SMN2; Homo sapiens
  IC50: < 0.1 µM
Target C [3]; Homo sapiens
  IC50: 0.1 to 1 µM
MYB [4]; Homo sapiens, K562, 24 h
  IC50: < 0.1 µM
HTT [5]; Homo sapiens, K562, 24 h
  IC50: < 0.1 µM
Target C [6]; Homo sapiens, K562, 24 h
  IC50: < 0.1 µM

## CN(c1ccc(-c2ccc(-c3ccc(=O)n(C)c3)c3cn[nH]c23)nn1)[C@@H]1C[C@H]2CC[C@@H](C1)N2 [Compound 365, 5-(7-{6-[(exo)-8-azabicyclo[3.2.1]octan-3-yl(methyl)amino]pyridazin-3-yl}-1H-indazol-4-yl)-1-methylpyridin-2-one]
HTT [1]; [7]
  IC50: 1 to 10 µM
HTT [1]; [8]
  AC50: 1 to 10 µM
HTT [1]; [9]
  IC50: 1 to 10 µM
MYB [2]; [10]
  IC50: > 10 µM
MYB [2]; [8]
  AC50: > 10 µM
MYB [2]; [11]
  IC50: > 10 µM
SMN2; Homo sapiens
  IC50: 1 to 10 µM
Target C [3]; Homo sapiens
  IC50: 1 to 10 µM
MYB [4]; Homo sapiens, K562, 24 h
  IC50: 1 to 10 µM
HTT [5]; Homo sapiens, K562, 24 h
  IC50: 1 to 10 µM
Target C [6]; Homo sapiens, K562, 24 h
  IC50: 1 to 10 µM

## FC1(F)CC2CC(Oc3ccc(-c4ccc(-c5cn[nH]c5)c5cn[nH]c45)nn3)CC1N2 (centres unmarked) [Compound 374, 7-[6-({6,6-difluoro-8-azabicyclo[3.2.1]octan-3-yl}oxy)pyridazin-3-yl]-4-(1H-pyrazol-4-yl)-1H-indazole]
HTT [1]; RT-qPCR panel, canonical junction mRNA, compound concentration having 50% response in CJ decrease, read-out: HTT IC50 (decrease in CJ mRNA levels)
  IC50: > 10 µM
HTT [1]; decrease in CJ mRNA, A673 or K562 cells, 24 hours treatment, RT-qPCR, read-out: HTT CJ IC50
  IC50: > 10 µM
MYB [2]; RT-qPCR panel, canonical junction mRNA, compound concentration having 50% response in CJ decrease, read-out: MYB IC50 (decrease in CJ mRNA levels)
  IC50: > 10 µM
MYB [2]; decrease in CJ mRNA, A673 or K562 cells, 24 hours treatment, RT-qPCR, read-out: MYB CJ IC50
  IC50: > 10 µM
SMN2
  IC50: > 10 µM
Target C [3]
  IC50: > 10 µM
MYB [4]; 24 hours
  IC50: > 10 µM
HTT [5]; 24 hours
  IC50: > 10 µM
Target C [6]; 24 hours
  IC50: > 10 µM

## Cc1n[nH]c2c(-c3ccc(N(C)[C@@H]4C[C@H]5CC[C@@H](C4)N5)nn3)ccc(-c3cnn(C)n3)c12 [Compound 375, (1R,3S,5S)-N-methyl-N-{6-[3-methyl-4-(2-methyl-1,2,3-triazol-4-yl)-1H-indazol-7-yl]pyridazin-3-yl}-8-azabicyclo[3.2.1]octan-3-amine]
HTT [1]; [7]
  IC50: > 10 µM
HTT [1]; [8]
  AC50: > 10 µM
HTT [1]; [9]
  IC50: > 10 µM
MYB [2]; [10]
  IC50: > 10 µM
MYB [2]; [8]
  AC50: > 10 µM
MYB [2]; [11]
  IC50: > 10 µM
SMN2; Homo sapiens
  IC50: > 10 µM
Target C [3]; Homo sapiens
  IC50: > 10 µM
MYB [4]; Homo sapiens, K562, 24 h
  IC50: > 10 µM
HTT [5]; Homo sapiens, K562, 24 h
  IC50: > 10 µM
Target C [6]; Homo sapiens, K562, 24 h
  IC50: > 10 µM

## CC(C)(C)NC1CCN(c2ccc(-c3ccc(-n4cccn4)c4[nH]ncc34)nn2)C1 (centres unmarked) [Compound 380, N-tert-butyl-1-{6-[7-(pyrazol-1-yl)-1H-indazol-4-yl]pyridazin-3-yl}pyrrolidin-3-amine]
HTT [1]; [7]
  IC50: 1 to 10 µM
HTT [1]; [8]
  AC50: 1 to 10 µM
HTT [1]; [9]
  IC50: 1 to 10 µM
MYB [2]; [10]
  IC50: 1 to 10 µM
MYB [2]; [8]
  AC50: 1 to 10 µM
MYB [2]; [11]
  IC50: 1 to 10 µM
SMN2; Homo sapiens
  IC50: 0.1 to 1 µM
Target C [3]; Homo sapiens
  IC50: 1 to 10 µM
MYB [4]; Homo sapiens, K562, 24 h
  IC50: 1 to 10 µM
HTT [5]; Homo sapiens, K562, 24 h
  IC50: 1 to 10 µM
Target C [6]; Homo sapiens, K562, 24 h
  IC50: 1 to 10 µM

## CCNC1CCN(c2ccc(-c3ccc(-c4cn[nH]c4)c4ncsc34)nn2)CC1 [Compound 410, N-ethyl-1-[6-[4-(1H-pyrazol-4-yl)-1,3-benzothiazol-7-yl]pyridazin-3-yl]piperidin-4-amine]
HTT [1]; [7]
  IC50: > 10 µM
HTT [1]; [8]
  AC50: > 10 µM
HTT [1]; [9]
  IC50: > 10 µM
MYB [2]; [10]
  IC50: 1 to 10 µM
MYB [2]; [8]
  AC50: > 10 µM
MYB [2]; [11]
  IC50: 1 to 10 µM
SMN2; Homo sapiens
  IC50: 1 to 10 µM
Target C [3]; Homo sapiens
  IC50: > 10 µM
MYB [4]; Homo sapiens, K562, 24 h
  IC50: 1 to 10 µM
HTT [5]; Homo sapiens, K562, 24 h
  IC50: 1 to 10 µM
Target C [6]; Homo sapiens, K562, 24 h
  IC50: 1 to 10 µM
